Legend:
PTPN7/LC-PTP = target: T1, PTPN7/LC-PTP (Homo sapiens, UniProt P35236); assay: Phosphatase assay PTPN7/LC-PTP; assay type: biochemical
T1 construct: purchased Recation Biology Inc

[1] = Weight loss in C57bl/6 male mice, once weekly dosing; assay type: in vivo
hAPP-J20 mice = assay: Morris water maze, hAPP-J20 Alzheimer's mouse model; assay type: in vivo
[2] = Body weight of mice after i.p. deuterated ENT-03; assay type: in vivo
Excerpt: The presence of the deuterium on the side chain likely slows the action of the 2-methylacyl-coenzyme A racemase on C-25, the subsequent action of the dehydrogenase that produces the 24,25-trans-unsaturated derivative by removing the deuterium atoms at C24 and C25, and the subsequent hydration and oxidation at the C24 bond catalyzed by the D-bifunctional protein. Instead, the metabolism of ENT-03D3 will begin with the oxidation at C24 by CYP46A1, yielding the following compound: […]

[3] = intraperitoneal 3, 5, 10 mg/kg once weekly over 2 weeks
[4] = intraperitoneal once weekly over 6 weeks
[5] = 2.5 mg/kg i.p. once per week for 6 weeks, vs vehicle

T1 sequence (P35236 whole entry): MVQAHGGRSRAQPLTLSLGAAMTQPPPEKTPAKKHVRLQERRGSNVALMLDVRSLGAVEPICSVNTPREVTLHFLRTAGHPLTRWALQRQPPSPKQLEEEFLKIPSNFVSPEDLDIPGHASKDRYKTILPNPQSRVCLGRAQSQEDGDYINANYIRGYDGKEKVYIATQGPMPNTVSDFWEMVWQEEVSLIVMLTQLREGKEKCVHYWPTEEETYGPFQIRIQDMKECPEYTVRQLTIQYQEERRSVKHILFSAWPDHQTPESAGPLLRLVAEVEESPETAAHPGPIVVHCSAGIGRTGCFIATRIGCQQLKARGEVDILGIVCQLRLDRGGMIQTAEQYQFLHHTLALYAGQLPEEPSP

SMILES	activity on PTPN7/LC-PTP, in words (PTPN7/LC-PTP)	clinical appearance of treated animals [1, 3]	weight loss, in words [1, 3]	clinical appearance of treated animals [1, 4]	weight loss, in words [1, 4]	learning during the training phase (hAPP-J20 mice; [5])	memory on the probe day (hAPP-J20 mice; [5])	latency to find the hidden platform during the training phase (hAPP-J20 mice; 2.5 mg/kg/wk i.p. over 6 weeks)	effect on body weight, in words [2]
CC(C)[C@@H](CC[C@@H](C)[C@H]1CC[C@H]2[C@@H]3[C@H](O)C[C@H]4C[C@@H](NCCCNCCCCNCCCN)CC[C@]4(C)[C@H]3CC[C@]12C)OS(=O)(=O)O (single isomer, unassigned) [ENT-02, trodusquemine]	target								
CC(CCCC(C)C1CCC2C3C(O)CC4CC(NCCCNCCCCNCCCN)CCC4(C)C3CCC12C)C(=O)O (single isomer, unassigned; ent-03) [ENT-03, 3-β-Spermino-7α-hydroxy-5α-cholestanoic acid]		clinically normal	dose dependent weight loss	clinically normal	dose dependent weight loss	improved	improved	decreased	loss of weight

From patent US12503485B2, “Human aminosterol ENT-03 compounds, related compositions comprising the same, and methods of using the same” (Enterin, Inc., priority 2019, dated 2025)
